The results in this text go back to ChEMBL document CHEMBL4402557, “Nidufexor (LMB763), a Novel FXR Modulator for the Treatment of Nonalcoholic Steatohepatitis” (J Med Chem, 2020).

Series [1] concerns the target T1, Estrogen receptor (Homo sapiens, UniProt P03372).
T1 sequence (P03372 whole entry): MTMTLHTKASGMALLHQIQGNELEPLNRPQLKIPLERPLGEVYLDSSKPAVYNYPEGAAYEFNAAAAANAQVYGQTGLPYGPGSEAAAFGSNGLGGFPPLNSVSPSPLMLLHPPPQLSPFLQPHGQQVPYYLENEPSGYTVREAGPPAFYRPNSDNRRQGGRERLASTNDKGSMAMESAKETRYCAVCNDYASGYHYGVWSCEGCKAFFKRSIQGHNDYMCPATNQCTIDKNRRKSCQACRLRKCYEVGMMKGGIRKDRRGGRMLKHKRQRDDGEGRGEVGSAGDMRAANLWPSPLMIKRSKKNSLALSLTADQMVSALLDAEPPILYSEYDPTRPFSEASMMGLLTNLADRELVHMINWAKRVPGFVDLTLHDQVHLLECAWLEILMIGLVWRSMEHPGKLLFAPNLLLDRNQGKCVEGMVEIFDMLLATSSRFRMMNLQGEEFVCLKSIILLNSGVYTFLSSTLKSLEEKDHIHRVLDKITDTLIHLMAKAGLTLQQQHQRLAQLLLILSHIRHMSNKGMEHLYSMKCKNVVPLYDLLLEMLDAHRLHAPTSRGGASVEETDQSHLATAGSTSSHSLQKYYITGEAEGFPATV
As to the kind of experiment: Agonist activity at ERalpha (unknown origin) incubated for 2 hrs by TR-FRET assay.

Series [2] in a line: Half life in Wistar rat at 3 mg/kg, iv. The series is classed as ADME, organism-based. As to conditions: in vivo.
Series [3] is described as follows: AUC in Wistar rat at 3 mg/kg, po. The format is ADME, organism-based. The settings on record: in vivo.
The nature of series [4]: AUC in Wistar rat at 30 mg/kg, po. The format is ADME, organism-based. As to conditions: in vivo.
The nature of series [5]: AUC in Wistar rat at 100 mg/kg, po. As to conditions: in vivo. The series is classed as ADME, organism-based.
A short description of series [6]: AUC in Wistar rat at 300 mg/kg, po. The series is classed as ADME, organism-based. The settings on record: in vivo.
The nature of series [7]: Cmax in Wistar rat at 300 mg/kg, po. The series is classed as ADME, organism-based. On the set-up: dose 300 mg/kg, route oral. As to conditions: in vivo.
Series [8] can be described thus: Half life in Wistar rat at 3 mg/kg, po. The format is ADME, organism-based. The settings on record: in vivo.
The nature of series [9]: Oral bioavailability in Wistar rat at 10 mg/kg. The settings on record: in vivo. The series is classed as ADME, organism-based.
A short description of series [10]: Oral bioavailability in Wistar rat at 30 mg/kg. The settings on record: in vivo. The format is ADME, organism-based.
Series [11] can be described thus: AUC in Wistar rat liver at 10 mg/kg, po. The series is classed as ADME, organism-based.
The nature of series [12]: Ratio of AUC in Brain to plasma in Wistar rat […] at 10 mg/kg, po. The series is classed as ADME, organism-based. As to conditions: read-out: Ratio AUC.
The target in series [13] is T2, Oxysterols receptor LXR-alpha (Homo sapiens, UniProt Q13133).
T2 sequence (Q13133 whole entry): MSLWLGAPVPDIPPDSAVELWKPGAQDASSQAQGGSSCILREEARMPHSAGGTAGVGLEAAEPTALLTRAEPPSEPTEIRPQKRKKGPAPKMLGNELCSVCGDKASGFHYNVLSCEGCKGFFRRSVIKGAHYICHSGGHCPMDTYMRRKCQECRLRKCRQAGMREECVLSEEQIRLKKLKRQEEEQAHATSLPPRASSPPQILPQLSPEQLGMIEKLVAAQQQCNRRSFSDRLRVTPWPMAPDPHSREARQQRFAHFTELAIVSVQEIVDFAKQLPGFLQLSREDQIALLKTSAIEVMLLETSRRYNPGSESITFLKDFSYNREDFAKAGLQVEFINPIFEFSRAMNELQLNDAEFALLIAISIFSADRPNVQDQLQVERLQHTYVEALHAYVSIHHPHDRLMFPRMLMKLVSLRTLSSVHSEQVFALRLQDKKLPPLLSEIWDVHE
As to the kind of experiment: Agonist activity at GAL4-fused LXR LBD (unknown origin) expressed in HEK293T cells incubated for 24 by BrightGlo reagent based assay. The series is classed as cell-based.

Series [14] has as its target T3, Glucocorticoid receptor (Homo sapiens, UniProt P04150).
T3 sequence (P04150 whole entry): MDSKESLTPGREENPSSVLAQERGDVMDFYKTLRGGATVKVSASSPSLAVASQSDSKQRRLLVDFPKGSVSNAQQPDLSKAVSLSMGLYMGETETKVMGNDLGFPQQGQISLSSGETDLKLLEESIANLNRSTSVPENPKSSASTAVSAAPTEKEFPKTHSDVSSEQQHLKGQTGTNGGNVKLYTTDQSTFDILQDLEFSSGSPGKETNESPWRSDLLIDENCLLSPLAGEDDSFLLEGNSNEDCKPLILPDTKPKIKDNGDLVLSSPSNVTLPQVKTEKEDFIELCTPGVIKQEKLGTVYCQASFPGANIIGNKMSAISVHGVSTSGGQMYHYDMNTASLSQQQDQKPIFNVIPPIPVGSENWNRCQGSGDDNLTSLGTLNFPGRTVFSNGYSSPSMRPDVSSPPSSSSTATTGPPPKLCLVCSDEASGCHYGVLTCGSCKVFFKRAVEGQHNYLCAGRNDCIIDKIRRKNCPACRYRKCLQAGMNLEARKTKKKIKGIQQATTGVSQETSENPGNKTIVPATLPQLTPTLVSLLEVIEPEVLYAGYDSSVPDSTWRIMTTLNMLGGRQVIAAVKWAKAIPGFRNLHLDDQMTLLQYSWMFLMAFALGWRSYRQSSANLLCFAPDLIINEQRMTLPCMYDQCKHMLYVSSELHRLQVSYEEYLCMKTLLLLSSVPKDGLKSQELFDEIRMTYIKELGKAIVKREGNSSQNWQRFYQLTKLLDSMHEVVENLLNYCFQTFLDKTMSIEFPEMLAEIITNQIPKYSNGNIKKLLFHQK
As to the kind of experiment: Agonist activity at GAL4-fused Glucocorticoid receptor (unknown origin) expressed in HEK293T cells incubated for 24 by BrightGlo reagent based assay. The format is cell-based.

In series [15] the test system is Rattus norvegicus. The series can be described thus: In-vivo agonist activity at FXR in orally dosed Han Wistar rat assessed as upregulation of SHP mRNA level in ileum administered via oral gavage once daily for 14 days measured post last dose by qRT-PCR analysis. The format is functional, organism-based.
For series [16], the system named is Rattus norvegicus. As to the kind of experiment: In-vivo agonist activity at FXR in orally dosed Han Wistar rat assessed as repression of CYP7a1 mRNA level in liver administered via oral gavage once daily for 14 days measured post last dose by qRT-PCR analysis. The series is classed as functional, organism-based.
For series [17], the system named is Rattus norvegicus. As to the kind of experiment: In-vivo agonist activity at FXR in orally dosed Han Wistar rat assessed as repression of CYP8b1 mRNA level in liver administered via oral gavage once daily for 14 days measured post last dose by qRT-PCR analysis. The format is functional, organism-based.
Series [18] has as its system Rattus norvegicus. As to the kind of experiment: In-vivo agonist activity at FXR in Han Wistar rat assessed as upregulation of FGF15 mRNA level in ileum at 1.5 mg/kg administered via oral gavage once daily for 14 days measured 10 hrs post last dose by qRT-PCR analysis relative to control. The series is classed as functional.
In series [19] the test system is Mus musculus. The series can be described thus: Anti Steato-hepatitic activity in STZ/HFD induced oral dosed C57BL/6J mouse STAM model assessed as reduction in hepatocellular ballooning administered via oral gavage once daily for 3 weeks and measured on 9 week by H and E staining based assay. The series is classed as functional, organism-based.
A short description of series [20]: Clearance in rabbit at 5 mg/kg, iv. The format is ADME, organism-based, Oryctolagus cuniculus. As to conditions: in vivo.
The nature of series [21]: Volume of distribution at steady state in mouse at 3 mg/kg, iv. The format is ADME, organism-based. As to conditions: in vivo, read-out: Vdss.
A short description of series [22]: Oral bioavailability in dog at 2 mg/kg. The series is classed as ADME, organism-based, Canis lupus familiaris. The settings on record: in vivo.
Series [23] can be described thus: Terminal half life in orally dosed rat. The format is ADME, organism-based. The settings on record: in vivo, po, read-out: beta t1/2 (converted).

SMILES strings stand for the structures. The source made the active and inactive calls. The calls are words filed in the database; no cut-off is given here.

For `Cn1nc(C(=O)N(Cc2ccccc2)Cc2ccc(C(=O)O)cc2)c2c1-c1cc(Cl)ccc1OC2` [NIDUFEXOR], the half-maximal effective concentration (EC50) in [1] is more than 30 µM; in series [13], more than 10 µM; in series [14], more than 10 µM. Moreover, the half-life in series [2] is 3 h; in series [8], 3.9 h; in [23] it was 13 h. Besides, the AUC came out at 9.2 µM·h in series [3]; 76.5 µM·h in series [4]; 399 µM·h in series [5]; 1040 µM·h in [6]; 36.7 µM·h in series [11]. This compound also came in with a maximum concentration (Cmax) in series [7] of 141 µM. Moreover, the bioavailability came out at 52% in series [9], 52% in [10] and 80% in series [22]. Further, the Kp in series [12] was found to be 0.05. Moreover, the Activity result in series [15] and in series [19] was “Dose-dependent effect” in each case. Besides, the result in series [16] and in [17] was Active. Moreover, the “fold change (FC)” value in series [18] was found to be 30. In addition, the clearance in [20] turned out to be 5.6 mL/min/kg. Besides, the Vd in series [21] was 0.9 L/kg.
